# Measured values published in PubChem BioAssay (NCI).
#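 Tested at 5 concentrations; 48 h exposure; 96-well plates; endpoints linearly interpolated, else capped at highest concentration. At the GI50, growth is halved. The concentration for full growth arrest is given as TGI.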
# Key:
# Test in all cases: NCI-60 cell line screen, 48 h
# SF-268 CNS = tested on: SF-268 CNS
# SK-MEL-28 melanoma = tested on: SK-MEL-28 melanoma
# PC-3 prostate = tested on: PC-3 prostate
# NCI-H23 lung = tested on: NCI-H23 lung
# KM12 colon = tested on: KM12 colon
# MOLT-4 leukemia = tested on: MOLT-4 leukemia
# OVCAR-4 ovarian = tested on: OVCAR-4 ovarian
# SK-MEL-2 melanoma = tested on: SK-MEL-2 melanoma
# COLO 205 colon = tested on: COLO 205 colon
# OVCAR-8 ovarian = tested on: OVCAR-8 ovarian
# HCC-2998 colon = tested on: HCC-2998 colon
# MDA-MB-231 breast = tested on: MDA-MB-231 breast
# NCI/ADR-RES ovarian = tested on: NCI/ADR-RES ovarian
# LOX IMVI melanoma = tested on: LOX IMVI melanoma
# T-47D breast = tested on: T-47D breast
# RXF 393 renal = tested on: RXF 393 renal
# HT29 colon = tested on: HT29 colon
# HOP-62 NSCLC = tested on: HOP-62 NSCLC
# NCI-H522 lung = tested on: NCI-H522 lung
# A498 renal = tested on: A498 renal
# TK-10 renal = tested on: TK-10 renal
# CCRF-CEM leukemia = tested on: CCRF-CEM leukemia
# OVCAR-5 ovarian = tested on: OVCAR-5 ovarian
# SW-620 colon = tested on: SW-620 colon
# MCF7 breast = tested on: MCF7 breast
# SF-295 CNS = tested on: SF-295 CNS
# SK-OV-3 ovarian = tested on: SK-OV-3 ovarian
# SK-MEL-5 melanoma = tested on: SK-MEL-5 melanoma
# NCI-H460 lung = tested on: NCI-H460 lung
# U251 CNS = tested on: U251 CNS
# A549 NSCLC = tested on: A549 NSCLC
# OVCAR-3 ovarian = tested on: OVCAR-3 ovarian
# SN12C renal = tested on: SN12C renal
# K-562 leukemia = tested on: K-562 leukemia
# SF-539 CNS = tested on: SF-539 CNS
# SR leukemia = tested on: SR leukemia
# SNB-75 CNS = tested on: SNB-75 CNS
# EKVX NSCLC = tested on: EKVX NSCLC
# M14 melanoma = tested on: M14 melanoma
# HL-60(TB) leukemia = tested on: HL-60(TB) leukemia
# 786-0 renal = tested on: 786-0 renal
# DU-145 prostate = tested on: DU-145 prostate
# UO-31 renal = tested on: UO-31 renal
# SNB-19 CNS = tested on: SNB-19 CNS
# IGROV1 ovarian = tested on: IGROV1 ovarian
# RPMI-8226 leukemia = tested on: RPMI-8226 leukemia
# MALME-3M melanoma = tested on: MALME-3M melanoma
# HS 578T breast = tested on: HS 578T breast
# UACC-257 melanoma = tested on: UACC-257 melanoma
# HOP-92 NSCLC = tested on: HOP-92 NSCLC
# NCI-H226 lung = tested on: NCI-H226 lung
# UACC-62 melanoma = tested on: UACC-62 melanoma
# ACHN renal = tested on: ACHN renal
# BT-549 breast = tested on: BT-549 breast
# HCT-116 colon = tested on: HCT-116 colon
# CAKI-1 renal = tested on: CAKI-1 renal
# HCT-15 colon = tested on: HCT-15 colon
# MDA-MB-435 = tested on: MDA-MB-435
# MDA-N = tested on: MDA-N
smiles,measurement,setting,value
O=C(N/N=C/c1cc([N+](=O)[O-])ccc1O)c1cccc2ccccc12,GI50,SF-268 CNS,4.12 µM
same,TGI,SF-268 CNS,> 100 µM
same,GI50,SK-MEL-28 melanoma,3.11 µM
same,TGI,SK-MEL-28 melanoma,80.8 µM
same,GI50,PC-3 prostate,6.85 µM
same,TGI,PC-3 prostate,64.9 µM
same,GI50,NCI-H23 lung,4.68 µM
same,TGI,NCI-H23 lung,> 100 µM
same,GI50,KM12 colon,4.66 µM
same,TGI,KM12 colon,> 100 µM
same,GI50,MOLT-4 leukemia,2.41 µM
same,TGI,MOLT-4 leukemia,21.7 µM
same,GI50,OVCAR-4 ovarian,1.2 µM
same,TGI,OVCAR-4 ovarian,26.2 µM
same,GI50,SK-MEL-2 melanoma,6.69 µM
same,TGI,SK-MEL-2 melanoma,> 100 µM
same,GI50,COLO 205 colon,3.41 µM
same,TGI,COLO 205 colon,16.3 µM
same,GI50,OVCAR-8 ovarian,2.88 µM
same,TGI,OVCAR-8 ovarian,> 100 µM
same,GI50,HCC-2998 colon,5.3 µM
same,TGI,HCC-2998 colon,> 100 µM
same,GI50,MDA-MB-231 breast,7.6 µM
same,TGI,MDA-MB-231 breast,> 100 µM
same,GI50,NCI/ADR-RES ovarian,2.32 µM
same,TGI,NCI/ADR-RES ovarian,51.6 µM
same,GI50,LOX IMVI melanoma,2.02 µM
same,TGI,LOX IMVI melanoma,53.4 µM
same,GI50,T-47D breast,3.28 µM
same,TGI,T-47D breast,23.3 µM
same,GI50,RXF 393 renal,4.14 µM
same,TGI,RXF 393 renal,35.1 µM
same,GI50,HT29 colon,5.74 µM
same,TGI,HT29 colon,> 100 µM
same,GI50,HOP-62 NSCLC,3.73 µM
same,TGI,HOP-62 NSCLC,35.2 µM
same,GI50,NCI-H522 lung,3.47 µM
same,TGI,NCI-H522 lung,22 µM
same,GI50,A498 renal,2.71 µM
same,TGI,A498 renal,29.3 µM
same,GI50,TK-10 renal,4.4 µM
same,TGI,TK-10 renal,72.9 µM
same,GI50,CCRF-CEM leukemia,0.905 µM
same,TGI,CCRF-CEM leukemia,38.6 µM
same,GI50,OVCAR-5 ovarian,6.2 µM
same,TGI,OVCAR-5 ovarian,> 100 µM
same,GI50,SW-620 colon,3.7 µM
same,TGI,SW-620 colon,> 100 µM
same,GI50,MCF7 breast,2.49 µM
same,TGI,MCF7 breast,13.4 µM
same,GI50,SF-295 CNS,2.77 µM
same,TGI,SF-295 CNS,20.9 µM
same,GI50,SK-OV-3 ovarian,4 µM
same,TGI,SK-OV-3 ovarian,33.3 µM
same,GI50,SK-MEL-5 melanoma,3.15 µM
same,TGI,SK-MEL-5 melanoma,14.3 µM
same,GI50,NCI-H460 lung,2.75 µM
same,TGI,NCI-H460 lung,> 100 µM
same,GI50,U251 CNS,2.46 µM
same,TGI,U251 CNS,64.1 µM
same,GI50,A549 NSCLC,4.56 µM
same,TGI,A549 NSCLC,> 100 µM
same,GI50,OVCAR-3 ovarian,3.67 µM
same,TGI,OVCAR-3 ovarian,> 100 µM
same,GI50,SN12C renal,6.62 µM
same,TGI,SN12C renal,> 100 µM
same,GI50,K-562 leukemia,3.26 µM
same,TGI,K-562 leukemia,> 100 µM
same,GI50,SF-539 CNS,3.8 µM
same,TGI,SF-539 CNS,24.2 µM
same,GI50,SR leukemia,1.81 µM
same,TGI,SR leukemia,16.1 µM
same,GI50,SNB-75 CNS,6.2 µM
same,TGI,SNB-75 CNS,44.7 µM
same,GI50,EKVX NSCLC,3.8 µM
same,TGI,EKVX NSCLC,29.7 µM
same,GI50,M14 melanoma,2.87 µM
same,TGI,M14 melanoma,68.4 µM
same,GI50,HL-60(TB) leukemia,2.27 µM
same,TGI,HL-60(TB) leukemia,6.02 µM
same,GI50,786-0 renal,3.29 µM
same,TGI,786-0 renal,27.7 µM
same,GI50,DU-145 prostate,6.2 µM
same,TGI,DU-145 prostate,> 100 µM
same,GI50,UO-31 renal,1.8 µM
same,TGI,UO-31 renal,19.5 µM
same,GI50,SNB-19 CNS,7.65 µM
same,TGI,SNB-19 CNS,> 100 µM
same,GI50,IGROV1 ovarian,2.36 µM
same,TGI,IGROV1 ovarian,8.47 µM
same,GI50,RPMI-8226 leukemia,3.35 µM
same,TGI,RPMI-8226 leukemia,62.2 µM
same,GI50,MALME-3M melanoma,3.12 µM
same,TGI,MALME-3M melanoma,21.7 µM
same,GI50,HS 578T breast,12.8 µM
same,TGI,HS 578T breast,> 100 µM
same,GI50,UACC-257 melanoma,2.7 µM
same,TGI,UACC-257 melanoma,26.9 µM
same,GI50,HOP-92 NSCLC,1.26 µM
same,TGI,HOP-92 NSCLC,13 µM
same,GI50,NCI-H226 lung,2.45 µM
same,TGI,NCI-H226 lung,11.5 µM
same,GI50,UACC-62 melanoma,2.98 µM
same,TGI,UACC-62 melanoma,26.4 µM
same,GI50,ACHN renal,3.08 µM
same,TGI,ACHN renal,44.7 µM
same,GI50,BT-549 breast,1.63 µM
same,TGI,BT-549 breast,23.7 µM
same,GI50,HCT-116 colon,2.56 µM
same,TGI,HCT-116 colon,> 100 µM
same,GI50,CAKI-1 renal,1.31 µM
same,TGI,CAKI-1 renal,4.67 µM
same,GI50,HCT-15 colon,2.55 µM
same,TGI,HCT-15 colon,> 100 µM
same,GI50,MDA-MB-435,7.18 µM
same,TGI,MDA-MB-435,> 100 µM
C/C(CC1SCCCS1)=C(/C)CC1SCCCS1,TGI,SF-268 CNS,> 100 µM
same,TGI,SK-MEL-28 melanoma,> 100 µM
same,TGI,PC-3 prostate,> 100 µM
same,TGI,NCI-H23 lung,> 100 µM
same,TGI,KM12 colon,> 100 µM
same,TGI,MOLT-4 leukemia,> 100 µM
same,TGI,OVCAR-4 ovarian,> 100 µM
same,TGI,SK-MEL-2 melanoma,> 100 µM
same,TGI,COLO 205 colon,> 100 µM
same,TGI,OVCAR-8 ovarian,> 100 µM
same,TGI,HCC-2998 colon,> 100 µM
same,TGI,MDA-MB-231 breast,> 100 µM
same,TGI,NCI/ADR-RES ovarian,> 100 µM
same,TGI,LOX IMVI melanoma,> 100 µM
same,TGI,T-47D breast,> 100 µM
same,TGI,RXF 393 renal,> 100 µM
same,TGI,HT29 colon,> 100 µM
same,TGI,HOP-62 NSCLC,> 100 µM
same,TGI,A498 renal,> 100 µM
same,TGI,TK-10 renal,> 100 µM
same,TGI,MDA-N,> 100 µM
same,TGI,CCRF-CEM leukemia,> 100 µM
same,TGI,OVCAR-5 ovarian,> 100 µM
same,TGI,SW-620 colon,> 100 µM
same,TGI,MCF7 breast,> 100 µM
same,TGI,SF-295 CNS,> 100 µM
same,TGI,SK-MEL-5 melanoma,> 100 µM
same,TGI,NCI-H460 lung,> 100 µM
same,TGI,A549 NSCLC,> 100 µM
same,TGI,OVCAR-3 ovarian,> 100 µM
same,TGI,SN12C renal,> 100 µM
same,TGI,K-562 leukemia,> 100 µM
same,TGI,SF-539 CNS,> 100 µM
same,TGI,SR leukemia,> 100 µM
same,TGI,SNB-75 CNS,> 100 µM
same,TGI,EKVX NSCLC,> 100 µM
same,TGI,M14 melanoma,> 100 µM
same,TGI,HL-60(TB) leukemia,> 100 µM
same,TGI,786-0 renal,> 100 µM
same,TGI,DU-145 prostate,> 100 µM
same,TGI,UO-31 renal,> 100 µM
same,TGI,SNB-19 CNS,> 100 µM
same,TGI,IGROV1 ovarian,> 100 µM
same,TGI,RPMI-8226 leukemia,> 100 µM
same,TGI,MALME-3M melanoma,> 100 µM
same,TGI,HS 578T breast,> 100 µM
same,TGI,NCI-H226 lung,> 100 µM
same,TGI,UACC-62 melanoma,> 100 µM
same,TGI,ACHN renal,> 100 µM
same,TGI,HCT-116 colon,> 100 µM
same,TGI,CAKI-1 renal,> 100 µM
same,TGI,HCT-15 colon,> 100 µM
same,TGI,MDA-MB-435,> 100 µM
